According to patent publication US7354904B2, “Bacteriocin inducer peptides” (priority 2005, dated 2008):

Tests used:
[1] = tested on: Enterococcus faecium LWP 50-52; assay: Influence of signal peptide on bacteriocin 50-52 production, flask culture (fraction protein at 215 nm, activity by spot-test against C. jejuni and S. enteritidis); assay type: cell-based
[2] = tested on: Enterococcus faecium LWP 50-52; assay: Bacteriocin 50-52 production with signal peptide under scaled-up cultivation (bioreactor); assay type: cell-based; settings: LWP 50-52 + LWP-320, 0.22 mg peptide added after 2 hours of cultivation, about 12 hours
Procedure: The antagonistic activity of the bacteriocins produced when using the signal peptide and an inducer strain of bacteria against C. jejuni and S. enteritidis was assessed using a Spot Test. The steps included taking various concentrations of pure preparation (μg/ml) of the bacteriocin in approximately 10 microliters of volume plated onto blood-supplemented Campylobacter agar or Nutrient agar (MPA or Meta Peptone Agar) previously seeded with cells of target bacteria. Plates containing cultures of C. jejuni were grown at about 42° C., under microaerobic conditions. Plates containing S. enteritidis were grown at about 37° C. under aerobic conditions. Activity of the bacteriocin was expressed in arbitrary units (AU) per one milliliter of the preparation at which a visible zone of inhibition of the growth of culture appears (Henderson et al., Archives of Biochemistry and Biophysics, Volume 295, 5-12, 1992; herein incorporated by reference). Specific activity can also expressed as arbitrary units per milligram of pure bacteriocin.
Isolation of bacteriocin 50-52 involved two steps: (1) the isolation of bacteriocin from the supernatant of the culture fluid and (2) the isolation of bacteriocin from the precipitate of cells of both the inducing and the producing strains. In step 1, the cultures were harvested and separated by centrifugation at about 10,000×g for about 15 minutes to precipitate the cells. The supernatant was applied to an Octyl Sepharose 4 Fast Flow column to recover the bacteriocin using an elution buffer of about 20 mM K2HPO4 buffer, pH approximately 7.0. The cell precipitate from step 2 was suspended in phosphate buffer with about 0.7% NaCl, pH approximately 5.6 (elution buffer) and the suspension was mixed and incubated for about 20 minutes. After incubation, the suspension was centrifuged at about 10,000×g for about 15 minutes. The bacteriocin was isolated from the supernatant using ion-exchange chromatography on Superose SP Fast Flow using an elution buffer containing about 10 mM Tris HCl and about 125 mM NaCl, pH approximately 7.5. Antagonistic activities of the bacteriocin fractions against C. jejuni and S. enteritidis were assessed in a spot-test. The level of purity of bacteriocins was determined by SDS-PAGE. The isoelectric points of the fractions were determined using isoelectricfocusing. Concentrations of protein for all bacteriocin fractions were determined at approximately 215 nm using a spectrophotometric method.
To evaluate influence of the signal peptide on bacteriocin production under scaled-up cultivation, producing and inducing strains were grown in a V-6 liter bioreactor containing about 6 liters of medium. The ratio of concentrations of cultures and the signal peptide was maintained as in Table 5 for the conditions of 10% Brucella Broth, LWP 50-52, LWP 320, 0.01 mg/ml of LWP 50-52 signal peptide added after about 2 hours of cultivation. Isolation of bacteriocin 50-52 was performed at about 8, 10, 12, and 14 hours of cultivation as described above. The control contained 10% Brucella Broth, LWP 50-52, LWP-320, at a pH of approximately 6.9, at about 37° C., and about 150 rpm. The bacteriocin 50-52 was isolated after about 12 hours of cultivation. For the second condition, the conditions were the same except that approximately 0.22 mg of LWP 50-52 signal peptide was added after 2 hours of cultivation. Each condition was repeated three times.

[3] = LWP 50-52 + LWP 320, peptide 0.001 mg/ml
[4] = LWP 50-52 + LWP 320, peptide 0.001 mg/ml added after about 2 hours
[5] = LWP 50-52 + LWP 320, peptide 0.001 mg/ml added after about 4 hours
[6] = LWP 50-52 + LWP 320, peptide 0.001 mg/ml added after about 6 hours
[7] = LWP 50-52 + LWP 320, peptide 0.01 mg/ml
[8] = LWP 50-52 + LWP 320, peptide 0.01 mg/ml added after about 2 hours
[9] = LWP 50-52 + LWP 320, peptide 0.01 mg/ml added after about 4 hours
[10] = LWP 50-52 + LWP 320, peptide 0.01 mg/ml added after about 6 hours
[11] = LWP 50-52 + LWP 320, peptide 0.1 mg/ml
[12] = LWP 50-52 + LWP 320, peptide 0.1 mg/ml added after about 2 hours
[13] = LWP 50-52 + LWP 320, peptide 0.1 mg/ml added after about 4 hours
[14] = LWP 50-52 + LWP 320, peptide 0.1 mg/ml added after about 6 hours
[15] = LWP 50-52, no inducer, peptide 0.001 mg/ml
[16] = LWP 50-52, no inducer, peptide 0.001 mg/ml added after about 2 hours
[17] = LWP 50-52, no inducer, peptide 0.001 mg/ml added after about 4 hours
[18] = LWP 50-52, no inducer, peptide 0.001 mg/ml added after about 6 hours
[19] = LWP 50-52, no inducer, peptide 0.01 mg.ml added after about 4 hours
[20] = LWP 50-52, no inducer, peptide 0.01 mg.ml added after about 6 hours
[21] = LWP 50-52, no inducer, peptide 0.01 mg/ml
[22] = LWP 50-52, no inducer, peptide 0.01 mg/ml added after about 2 hours
[23] = LWP 50-52, no inducer, peptide 0.1 mg/ml
[24] = LWP 50-52, no inducer, peptide 0.1 mg/ml added after about 2 hours
[25] = LWP 50-52, no inducer, peptide 0.10 mg/ml added after about 4 hours
[26] = LWP 50-52, no inducer, peptide 0.10 mg/ml added after about 6 hours

TNVTKSWWVLAGCNQVVASNCNCGNVKGLT (listed as Enterococcus faecium) [LWP 50-52 Signal Peptide, signal peptide isolated from Enterococcus faecium LWP 50-52, stimulates bacteriocin 50-52 production]
Activity [1, 3]: 819,200 AU/ml
Protein Concentration [1, 3]: 0.25 mg/mL
Protein increase vs. Control [1, 3]: 1
Specific Activity [1, 3]: 3,276,800 AU/mg
mg protein/liter [1, 3]: 82.5 mg protein/liter
Activity [1, 4]: 819,200 AU/ml
Protein Concentration [1, 4]: 0.25 mg/mL
Protein increase vs. Control [1, 4]: 1
Specific Activity [1, 4]: 3,276,800 AU/mg
mg protein/liter [1, 4]: 82.5 mg protein/liter
Activity [1, 5]: 819,200 AU/ml
Protein Concentration [1, 5]: 0.25 mg/mL
Protein increase vs. Control [1, 5]: 1
Specific Activity [1, 5]: 3,276,800 AU/mg
mg protein/liter [1, 5]: 82.5 mg protein/liter
Activity [1, 6]: 819,200 AU/ml
Protein Concentration [1, 6]: 0.25 mg/mL
Protein increase vs. Control [1, 6]: 1
Specific Activity [1, 6]: 3,276,800 AU/mg
mg protein/liter [1, 6]: 82.5 mg protein/liter
Activity [1, 7]: 1,638,400 AU/ml
Protein Concentration [1, 7]: 1.0 mg/mL
Protein increase vs. Control [1, 7]: 4
Specific Activity [1, 7]: 1,638,400 AU/mg
mg protein/liter [1, 7]: 330.0 mg protein/liter
Activity [1, 8]: 3,276,800 AU/ml
Protein Concentration [1, 8]: 1.07 mg/mL
Protein increase vs. Control [1, 8]: 4.28
Specific Activity [1, 8]: 3,062,429 AU/mg
mg protein/liter ([1]; LWP 50-52 + LWP 320, peptide 0.01 mg/ml added after about 2 hours, listed as LWP 320 Signal Peptide): 353.1 mg protein/liter
mg protein/liter ([1]; LWP 50-52 + LWP 320, peptide 0.01 mg/ml added after about 2 hours, listed as signal peptide from LWP 50-52): about 353.1 mg protein/liter
Activity [1, 9]: 1,638,400 AU/ml
Protein Concentration [1, 9]: 1.0 mg/mL
Protein increase vs. Control [1, 9]: 4
Specific Activity [1, 9]: 1,638,400 AU/mg
mg protein/liter [1, 9]: 330.0 mg protein/liter
Activity [1, 10]: 1,638,400 AU/ml
Protein Concentration [1, 10]: 1.0 mg/mL
Protein increase vs. Control [1, 10]: 4
Specific Activity [1, 10]: 1,638,400 AU/mg
mg protein/liter [1, 10]: 330.0 mg protein/liter
Activity [1, 11]: 819,200 AU/ml
Protein Concentration [1, 11]: 0.25 mg/mL
Protein increase vs. Control [1, 11]: 1
Specific Activity [1, 11]: 3,276,800 AU/mg
mg protein/liter [1, 11]: 82.5 mg protein/liter
Activity [1, 12]: 819,200 AU/ml
Protein Concentration [1, 12]: 0.25 mg/mL
Protein increase vs. Control [1, 12]: 1
Specific Activity [1, 12]: 3,276,800 AU/mg
mg protein/liter [1, 12]: 82.5 mg protein/liter
Activity [1, 13]: 819,200 AU/ml
Protein Concentration [1, 13]: 0.25 mg/mL
Protein increase vs. Control [1, 13]: 1
Specific Activity [1, 13]: 3,276,800 AU/mg
mg protein/liter [1, 13]: 82.5 mg protein/liter
Activity [1, 14]: 819,200 AU/ml
Protein Concentration [1, 14]: 0.25 mg/mL
Protein increase vs. Control [1, 14]: 1
Specific Activity [1, 14]: 3,276,800 AU/mg
mg protein/liter [1, 14]: 82.5 mg protein/liter
Activity [1, 15]: 819,200 AU/ml
Protein Concentration [1, 15]: 0.25 mg/mL
Protein increase vs. Control [1, 15]: 1
Specific Activity [1, 15]: 3,276,800 AU/mg
mg protein/liter [1, 15]: 82.5 mg protein/liter
Activity [1, 16]: 819,200 AU/ml
Protein Concentration [1, 16]: 0.25 mg/mL
Protein increase vs. Control [1, 16]: 1
Specific Activity [1, 16]: 3,276,800 AU/mg
mg protein/liter [1, 16]: 82.5 mg protein/liter
Activity [1, 17]: 819,200 AU/ml
Protein Concentration [1, 17]: 0.25 mg/mL
Protein increase vs. Control [1, 17]: 1
Specific Activity [1, 17]: 3,276,800 AU/mg
mg protein/liter [1, 17]: 82.5 mg protein/liter
Activity [1, 18]: 819,200 AU/ml
Protein Concentration [1, 18]: 0.25 mg/mL
Protein increase vs. Control [1, 18]: 1
Specific Activity [1, 18]: 3,276,800 AU/mg
mg protein/liter [1, 18]: 82.5 mg protein/liter
Activity [1, 19]: 819,200 AU/ml
Protein Concentration [1, 19]: 0.27 mg/mL
Protein increase vs. Control [1, 19]: 1.08
Specific Activity [1, 19]: 3,034,074 AU/mg
mg protein/liter [1, 19]: 89.1 mg protein/liter
Activity [1, 20]: 819,200 AU/ml
Protein Concentration [1, 20]: 0.27 mg/mL
Protein increase vs. Control [1, 20]: 1.08
Specific Activity [1, 20]: 3,034,074 AU/mg
mg protein/liter [1, 20]: 89.1 mg protein/liter
Activity [1, 21]: 819,200 AU/ml
Protein Concentration [1, 21]: 0.27 mg/mL
Protein increase vs. Control [1, 21]: 1.08
Specific Activity [1, 21]: 3,034,074 AU/mg
mg protein/liter [1, 21]: 89.1 mg protein/liter
Activity [1, 22]: 819,200 AU/ml
Protein Concentration [1, 22]: 0.31 mg/mL
Protein increase vs. Control [1, 22]: 1.24
Specific Activity [1, 22]: 2,642,580 AU/mg
mg protein/liter [1, 22]: 102.3 mg protein/liter
Activity [1, 23]: 819,200 AU/ml
Protein Concentration [1, 23]: 0.25 mg/mL
Protein increase vs. Control [1, 23]: 1
Specific Activity [1, 23]: 3,276,800 AU/mg
mg protein/liter [1, 23]: 82.5 mg protein/liter
Activity [1, 24]: 819,200 AU/ml
Protein Concentration [1, 24]: 0.27 mg/mL
Protein increase vs. Control [1, 24]: 1.08
Specific Activity [1, 24]: 3,034,074 AU/mg
mg protein/liter [1, 24]: 89.1 mg protein/liter
Activity [1, 25]: 819,200 AU/ml
Protein Concentration [1, 25]: 0.27 mg/mL
Protein increase vs. Control [1, 25]: 1.08
Specific Activity [1, 25]: 3,034,074 AU/mg
mg protein/liter [1, 25]: 89.1 mg protein/liter
Activity [1, 26]: 819,200 AU/ml
Protein Concentration [1, 26]: 0.26 mg/mL
Protein increase vs. Control [1, 26]: 1.04
Specific Activity [1, 26]: 3,150,769 AU/mg
mg protein/liter [1, 26]: 85.8 mg protein/liter
Activity [2]: 6,553,600 AU/ml
Increase in the amount of protein vs. control [2]: 4
Protein Concentration [2]: 2.4 mg/mL
Specific Activity [2]: 2,730,665 AU/mg
Amount of Protein/liter of medium ([2]; listed as LWP 50-52 signal Peptide): 360 mg
Amount of Protein/liter of medium ([2]; listed as LWP 50-52 signal peptide): about 360 mg
